From US20240124455A1, “TRICYCLIC COMPOUNDS AS ANTICANCER AGENTS” (JINGRUI BIOPHARMA CO., LTD., priority 2021, published 2024)

Assays:
BRD4 (BD1) = target: T1, BRD4 (BD1) (Homo sapiens, UniProt O60885); assay: BRD4 (BD1) binding assay (HTRF); details: BRD4 (D1) with GST tag and biotin-labeled acetylated peptide
T1 construct: purchased Reaction Biology Company RD-11-157
Method: The BRD4 (BD1) biochemical binding assay was carried out by Sundia MediTech Co., Ltd. • Materials and suppliers: • BRD4(D1): Reaction Biology Company; catalog #: RD-11-157; batch #1319 • Positive control compound: AZD5153; Selleck, catalog #, S8344, batch #, 1 • Peptide: GL China; catalog #329934; batch #, P171229-JQ329934 • DMSO: Sigma; catalog #, D8418-1L; batch #, SHBG3288V • OptiPlate-384: PerkinElmer; catalog #6007270, batch #, 8240-17211 • Instruments: • Centrifuge (manufacturer: Eppendorf, model: 5430) • Microplate reader (manufacturer: Perkin Elmer, model: EnVision) • Sonic pipetting system (manufacturer: Labcyte, model: Echo® 550) • In the assay, the HTRF method uses an anti-GST antibody with a cryptate chelate-labeled europium element as the donor, and the d2 or XL665-labeled streptavidin (having high affinity with biotin) as the acceptor to study the interaction between BRD4 (D1) with GST tag and biotin-labeled acetylated peptide. When the donor and acceptor are close to each other due to the binding of BRD4 (D1) to the biotin-labeled peptide, the excitation of the donor triggers fluorescence resonance energy transfer (FRET) to the acceptor, which then emits fluorescence at a specific wavelength (665 nm). • General assay procedure: 20 nL of compound solution was transferred to the 384-well plate by Labcyte Echo® 550 liquid handler, and 5 μL of BRD4 (BD1) solution from Reaction Biology Company, RD-11-157, or the assay buffer was added to each well. After centrifuge for 1 minute and incubating 15 minutes at rt, the 5 μL peptide (GL China, Catalog #329934, Batch, P171229-JQ329934) was added to each well. After centrifuge for 1 minute at 1000 rpm, 10 μL detect solution was added to each well. After incubating for 60 minutes, centrifuging 1 minute, the signals were measured by Microplate reader. Data analysis: The inhibition percentage in the presence of the compound was calculated based on the following formula:
% Inhibition=(Signal_max−Signal sample/Signal_max−Signal_min)×100
Fitting the data in GrphaPad Prism V5.0 software with log(inhibitor) vs. response-Variable slope, the IC50 was obtained.

MV-4-11 = assay: Cell proliferation assay (Cell Titer-Glo); format: cell-based; details: MV-4-11 cells, compound treatment 72 h, CellTiter-Glo
Method: In order to evaluate the activity of the compound on cells, the Cell Titer-Glo assay was used for detection. The cells were incubated in a 37° C. incubator and treated with compounds for 72 hours. At the end of the reaction, the number of living cells in the culture is measured by quantitative determination of ATP. ATP is an indicator of the metabolism of living cells. With Cell Titer-Glo, the luminescence signal produced by cell lysis is proportional to the amount of ATP present, and the amount of ATP is directly proportional to the number of cells in the culture. These signal ratios reflect the cell activity of the compound at that concentration in the well under this condition. • (1) Seeding cells • Trypsinize cells and count cell density with the automated cell counter. • Dilute cell suspension to required density according to seeding density. • Seed 100 ul cells into 96-well plate in growth medium according to the plate map. Medium only is used as background control (Min). • Incubate at 37° C., 5% CO2 overnight. • (2) Compound treatment • Make 200× compound solution in DMSO. • Dilute compounds with growth medium to 3× final concentration by addition of 3 ul 200× compounds to 197 ul growth medium. • Add 50 ul diluted compounds to cells and incubate at 37° C., 5% CO2 for 72 h. • (3) Measurement • Equilibrate the assay plate to room temperature prior to measurement. • Add 40 ul of CellTiter-Glo® Reagent into each well. • Mix contents for 2 minutes on an orbital shaker to induce cell lysis. • Incubate at room temperature for 60 minutes to stabilize luminescent signal. • Record luminescence on Envision. • (4) Data analysis • (1) Using GraphPad Prism 5. • (2) % Inh=(Max signal−Compound signal)/(Max signal−Min signal)×100. • (3) Max signal was obtained from the action of DMSO. • (4) Min signal was obtained from the action of medium only.

| IC50 (BRD4 (BD1)) [nM] | IC50 (MV-4-11) [nM] | SMILES |
| --- | --- | --- |
| 0.18 | 0.49 | [2H]C([2H])([2H])n1nc2c3ncc(-c4c(C)nnn4C)cc3n(C(c3ncccc3F)C3CCOCC3)c2c1C(C)(C)O (single isomer, unassigned) [Example 16, 2-(6-(1,4-Dimethyl-1H-1,2,3-triazol-5-yl)-4-((3-fluoropyridin-2-yl)(tetrahydro-2H-pyran-4-yl)methyl)-2-(methyl-d3)-2,4-dihydropyrazolo[3′,4′:4,5]pyrrolo[3,2-b]pyridin-3-yl)propan-2-ol] |
| 5 | 85.3 | [2H]C([2H])([2H])c1nnn(C)c1-c1cnc2c3nn(C)c(C(C)(C)O)c3n(C(c3ncccc3F)C3CCOCC3)c2c1 (single isomer, unassigned) [Example 19, 2-(4-((3-Fluoropyridin-2-yl)(tetrahydro-2H-pyran-4-yl)methyl)-2-methyl-6-(1-methyl-4-(methyl-d3)-1H-1,2,3-triazol-5-yl)-2,4-dihydropyrazolo[3′,4′:4,5]pyrrolo[3,2-b]pyridin-3-yl)propan-2-ol] |
| 0.19 | 0.52 | Cc1nnn(C)c1-c1cnc2c3nn(C)c(C(C)(C)O)c3n(C(c3ncccc3F)C3CCOCC3)c2c1 (single isomer, unassigned) [Example 12, 2-(6-(1,4-Dimethyl-1H-1,2,3-triazol-5-yl)-4-((3-fluoropyridin-2-yl)(tetrahydro-2H-pyran-4-yl)methyl)-2-methyl-2,4-dihydropyrazolo[3′,4′:4,5]pyrrolo[3,2-b]pyridin-3-yl)propan-2-ol] |
| 0.17 | 0.81 | [2H]C([2H])([2H])c1nnn(C)c1-c1cnc2c3nn(C)c(C(C)(C)O)c3n(C(c3ncccc3F)C3CCOCC3)c2c1 (single isomer, unassigned) [Example 20, 2-(4-((3-Fluoropyridin-2-yl)(tetrahydro-2H-pyran-4-yl)methyl)-2-methyl-6-(1-methyl-4-(methyl-d3)-1H-1,2,3-triazol-5-yl)-2,4-dihydropyrazolo[3′,4′:4,5]pyrrolo[3,2-b]pyridin-3-yl)propan-2-ol] |
